Results reported in patent US11390648B2, “Peptide” (HYSENSBIO, priority 2017, dated 2022).

The substances below were run on Dspp gene (assay: Dspp mRNA level in human dental pulp cells treated with peptide (real-time PCR)). Details: hDPCs, peptide 10 μg/ml, 48 hours; ratio relative to Dspp mRNA level of untreated control; GAPDH internal control; triplicate.
Assay type: cell-based
Description: Human dental pulp cells were separated from wisdom teeth of adults (aged 18-22) at the School of Dentistry, Seoul National University. In detail, all experiments were performed after the approval of the Institutional Review Board and the informed consent from patients. Wisdom teeth were fractured according to a method of Jung HS et al. (J Mol Histol.(2011)) to expose the dental pulps, and dental pulp tissues were separated with forceps. Each of the separated dental pulp tissues was cut into small pieces with a razor blade, put in a 60-mm dish, covered with a coverslip, and then cultured in a Dulbecco's modified Eagle's medium. It has been known that human dental pulp cells can differentiate into odontoblast, osteoblast, cementoblast, and periodontal ligament cells under various conditions (Tissue Eng Part A. 2014 April; 20 (7-8): 1342-51).
Total RNA was extracted from human dental pulp cells (hDPCs), and human bone marrow mesenchymal stem cells (hBMSCs) with TRIzol reagent. 2 μg of the total RNA, 1 μl of reverse transcriptase, and 0.5 μg of oligo (oligo; dT) were used to synthesize cDNA. The synthesized cDNA was used in a real-time polymerase chain reaction. The real-time polymerase chain reaction was performed on an ABI PRISM 7500 sequence detection system (Applied Biosystems) and an SYBR GREEN PCR Master Mix (Takara, Japan). The real-time polymerase chain reaction was performed under conditions of 94° C., 1 min; 95° C., 15 sec; 60° C., 34 sec for 40 cycles. Results were analyzed by a comparative cycle threshold (CT) method. And the used primers are as follows (Table 17).
The human dental pulp cells (hDPCs) cultured in Example 3 were treated with the peptides (concentration of 10 μg/ml) of each group synthesized in Example 1-1, and cultured for 48 hours. Then, mRNA levels of an odontoblast differentiation marker Dspp gene expressed in the human dental pulp cells were measured, and a ratio of the measured Dspp mRNA level relative to a Dspp mRNA level measured in a control group was calculated, respectively (Tables 18 to 33).
The expression level of the Dspp gene was measured through RT-PCR and real-time PCR analysis described in Example 1-4. In this regard, GAPDH gene was used as an internal control. The experiments were performed in triplicate, and then mean values and standard deviations thereof were taken as measured values. The base sequence of the primers is described in Table 17 above.

Row | Substance | mRNA level of Dspp gene, Mean
1 | 87 (KYKNKKR; Novel peptide) [compound 87] | 1.888
2 | 88 (KYKNKRR; Novel peptide) [compound 88] | 1.539
3 | 89 (KYQNRKK; Novel peptide) [compound 89] | 1.635
4 | 90 (KYQNRKR; Novel peptide) [compound 90] | 1.797
5 | 91 (KYQNRRK; Novel peptide) [compound 91] | 1.913
6 | 92 (KYQNRRR; Novel peptide) [compound 92] | 1.498
7 | 93 (KYQNKKK; Novel peptide) [compound 93] | 1.892
8 | 94 (KYQNKRK; Novel peptide) [compound 94] | 1.487
9 | 95 (KYQNKKR; Novel peptide) [compound 95] | 1.939
10 | 96 (KYQNKRR; Novel peptide) [compound 96] | 2.011
11 | 97 (KYNQRKK; Novel peptide) [compound 97] | 1.515
12 | 98 (KYNQRKR; Novel peptide) [compound 98] | 1.479
13 | 99 (KYNQRRK; Novel peptide) [compound 99] | 1.737
14 | 100 (KYNQRRR; Novel peptide) [compound 100] | 1.599
15 | 101 (KYNQKKK; Novel peptide) [compound 101] | 1.674
16 | 102 (KYNQKRK; Novel peptide) [compound 102] | 1.855
17 | 103 (KYNQKKR; Novel peptide) [compound 103] | 1.737
18 | 104 (KYNQKRR; Novel peptide) [compound 104] | 1.878
19 | 105 (KYNNRKK; Novel peptide) [compound 105] | 1.664
20 | 106 (KYNNRKR; Novel peptide) [compound 106] | 1.673
21 | 107 (KYNNRRK; Novel peptide) [compound 107] | 1.935

Row | Substance | mRNA level of Dspp gene, Mean
22 | 108 (KYNNRRR; Novel peptide) [compound 108] | 1.495
23 | 109 (KYNNKKK; Novel peptide) [compound 109] | 1.756
24 | 110 (KYNNKRK; Novel peptide) [compound 110] | 1.595
25 | 111 (KYNNKKR; Novel peptide) [compound 111] | 1.918
26 | 112 (KYNNKRR; Novel peptide) [compound 112] | 1.699
27 | 113 (KYRKRKK; Novel peptide) [compound 113] | 1.778
28 | 114 (KYRKRKR; Novel peptide) [compound 114] | 1.849
29 | 115 (KYRKRRK; Novel peptide) [compound 115] | 1.707
30 | 116 (KYRKRRR; Novel peptide) [compound 116] | 1.693
31 | 117 (KYRKKKK; Novel peptide) [compound 117] | 1.929
32 | 118 (KYRKKRK; Novel peptide) [compound 118] | 2.015
33 | 119 (KYRNKKR; Novel peptide) [compound 119] | 2.121
34 | 120 (KYRNKRR; Novel peptide) [compound 120] | 1.878
35 | 121 (KYKKRKK; Novel peptide) [compound 121] | 2.024
36 | 122 (KYKKRKR; Novel peptide) [compound 122] | 1.979
37 | 123 (KYKKRRK; Novel peptide) [compound 123] | 1.837
38 | 124 (KYKKRRR; Novel peptide) [compound 124] | 2.017
39 | 125 (KYKKKKK; Novel peptide) [compound 125] | 2.082
40 | 126 (KYKKKRK; Novel peptide) [compound 126] | 1.798
41 | 127 (KYKKKKR; Novel peptide) [compound 127] | 1.888
42 | 128 (KYKKKRR; Novel peptide) [compound 128] | 1.765
